In patent US20020188323A1, “Methods, systems and devices for in vivo electrochemical production of therapeutic agents” (Remon Medical Technologies Ltd., priority 2001, published 2002):

How the values were obtained:
cells = conditions: cited from earlier work
human endothelial cells [1] = assay: Effect of hypochlorite on human endothelial cells (Vissers et al.); format: cell-based
Source text: Hypochlorite and hydrogen peroxide are strong oxidants and are extensively used as antiseptic agents. Hydrogen peroxide is routinely used as an antiseptic agent in cases of external wounds. Hypochlorite is used as an antiseptic agent during, for example, dental root treatment. Both hypochlorous acid and hydrogen peroxide are well-known disinfectants. Hypochlorite is widely used for treatment of drinking water and as a bactericide. Both hypochlorite and hydrogen peroxide have cytotoxic activity at concentrations of several ppm. Vissers et al. tested the effect of hypochlorite on cells. They noticed a necrosis threshold of 20-40 nmole HClO per 1.2×10^5 cells, which translates approximately into 2 ppm concentration. Transient growth (proliferation) inhibition occurred at lower concentrations of 5 nmole, or about 0.2-0.3 ppm. See, “Hypochlorous acid causes caspase activation and apoptosis or growth arrest in human endothelial cells”, by Margret C. M. Vissers, Juliet M. Pullar and Mark B. Hampton, Biochem. J. (1999) vol. 344, pp. 443-449. Schraufenstatter et al. discuss the effect of hypochlorite on P388D1 murine macrophage-like tumor cells in mice. They show cell damage at 0.5-1 ppm hypochlorite and cell death from about 4 ppm hypochlorite and up. […]

Dissociation of HClO = format: physicochemical; conditions: −log Ka
Source text: The dissociation constant of HClO or, in other words, the equilibrium constant of the reaction HClO→H^++ClO^−[6] is 3.7×10^−8.
Thus, the pKa of the reaction (i.e., −logka) equals 7.4. It is well known that when the pH of a solution equals the pKa of an acid dissolved therein, at all times, half of the acid molecules are dissociated. Since the blood pH value equals 7.4 half of the HClO is dissociated to H^+ and ClO^−.

human endothelial cells [2] = conditions: cited from earlier work
[3] = test system: P388D1 murine macrophage-like tumor cells; conditions: cited from earlier work
viruses and bacteria = conditions: cited from earlier work

Row | SMILES | concentration with cytotoxic activity (cells) | transient growth (proliferation) inhibition as concentration (human endothelial cells [1]; equivalent of 5 nmole) | necrosis threshold as concentration (human endothelial cells [1]; translated from nmole per 1.2×10^5 cells) [ppm] | pKa (Dissociation of HClO) | necrosis threshold (human endothelial cells [2]) | transient growth (proliferation) inhibition (human endothelial cells [2]; lower concentrations than necrosis) [nmol] | concentration causing cell damage [3] | concentration causing cell death [3] [ppm] | level required to kill all viruses and bacteria (viruses and bacteria) [ppm]
1 | OO [hydrogen peroxide] | several | – | – | – | – | – | – | – | –
2 | OCl [hypochlorite, hypochlorous acid] | several | 0.2-0.3 ppm | ~2 | 7.4 | 20-40 nmole HClO per 1.2×10^5 cells | 5 | 0.5-1 ppm | ≥ 4 | 40
